Values joined by “and” are separate entries in the source; they are usually repeats but may differ in a detail not shown here. Identical values can stand only once. Like-named read-outs stand apart in the source and are kept apart here.
Columns and labels:
P. digitatum [1] = test: Effect of pH and bicarbonate concentration on decay of oranges; format: in vivo, Penicillium digitatum
P. digitatum [2] = test: Immersion washing of oranges with various solutions, decay; format: in vivo, Penicillium digitatum
Green Mold [3] = conditions: 35 seconds, 2 weeks at 50° F.
Green Mold [4] = conditions: 35 seconds, 2 weeks at 50° F.; remark: listed apart in the source
P. digitatum [5] = conditions: fresh oranges and lemons; pressure washing; FIG. 6
[6] = test system: P. digitatum (M6R strain); test: SOPP, sodium bicarbonate & chlorine treatment, navel orange decay control; format: in vivo, Penicillium digitatum
[7] = test system: P. digitatum (M6R strain); test: High pressure washing of inoculated navel oranges with sodium hypochlorite solution, no bicarbonate; format: in vivo, Penicillium digitatum; conditions: 2 weeks at 55° F.; for % Fruit Decay (Average): navel oranges; for Total Decay: number of decayed navel oranges; for No decay: number of navel oranges without decay
Green Mold [8] = test: Washing of oranges inoculated with Green Mold, decay; format: in vivo, Penicillium digitatum; conditions: oranges infected by green mold; four groups of 25; pressure washer, or soak tank for soda ash, sodium bicarbonate
[9] = test system: sour rot (Geotrichum Candidum); test: Effect of treatments on sour rot decay of lemons; format: in vivo
P. digitatum isolate M6R [10] = conditions: lemons, 1 or 3% wt/vol, 200 micrograms/ml free NaOCl, pH 8.3, controls 97%
P. digitatum isolate M6R [11] = conditions: oranges, 1 or 3% wt/vol, 200 micrograms/ml free NaOCl, pH 8.3, controls 97%
P. digitatum [12] = conditions: lemons inoculated 48 hours before treatment; immersion; cited from earlier work
[13] = first set of data, four groups of 25
[14] = second set of data, dipping, pH 11.4, alone
[15] = second set of data, dipping, pH 7.5, alone
[16] = pressure washer (100 psi), navel oranges, replicates R1-R4, 2 weeks at 55° F., listed as Chlorine @ 200 ppm
[17] = high pressure (about 300 psi) wash
[18] = low pressure (about 95 psi) wash
[19] = second set of data, four groups of 25

## O=C([O-])[O-].[Na+].[Na+] [0.3 M soda ash, pH 11.4, sodium carbonate]
P. digitatum [1]; [13]
  Mean Decay (%): 10.000%
P. digitatum [1]; [14]
  Mean Decay (%): 10.000%

## O=C([O-])O.[Na+] [0.3 M sodium bicarbonate, pH 7.5, sodium bicarbonate]
P. digitatum [1]; [13]
  Mean Decay (%): 41.000%
P. digitatum [1]; [15]
  Mean Decay (%): 41.000%

## O=C([O-])O.[Na+] [0.3 M sodium bicarbonate, pH 8.4, sodium bicarbonate]
P. digitatum [1]; [13]
  Mean Decay (%): 43.000%
P. digitatum [1]; second set of data, dipping, pH 8.4, alone
  Mean Decay (%): 43.000%

## O=C([O-])[O-].[Na+].[Na+] [0.15 M soda ash, pH 11.4, sodium carbonate]
P. digitatum [1]; [13]
  Mean Decay (%): 31.000%
P. digitatum [1]; [14]
  Mean Decay (%): 31.000%

## O=C([O-])O.[Na+] [0.15 M sodium bicarbonate, pH 7.5, sodium bicarbonate]
P. digitatum [1]; [13]
  Mean Decay (%): 65.000%
P. digitatum [1]; [15]
  Mean Decay (%): 65.000%

## O=C([O-])O.[Na+] [BCB 0.5% alone, sodium bicarbonate]
P. digitatum [2]; in vivo
  Mean Decay (%): 27.000%
Green Mold [3]; high pressure washing
  Decay (%) Oranges: 76.3%
Green Mold [3]; low pressure washing
  Decay (%) Oranges: 82.7%
Green Mold [3]; no pressure washing, dip
  Decay (%) Oranges: 56.9%
Green Mold [4]; high pressure washing
  Decay (%) Lemons: 55.3%
Green Mold [4]; low pressure washing
  Decay (%) Lemons: 66.2%
Green Mold [4]; no pressure washing, dip
  Decay (%) Lemons: 45.1%

## O=C([O-])O.[Na+] [BCB 0.25% alone, sodium bicarbonate]
P. digitatum [2]; in vivo
  Mean Decay (%): 46.000%

## O=C([O-])O.[Na+] [BCB 1% alone, sodium bicarbonate]
P. digitatum [2]; in vivo
  Mean Decay (%): 13.000%

## O=C([O-])O.[Na+] [BCB 3% alone, sodium bicarbonate]
P. digitatum [2]; in vivo
  Mean Decay (%): 7.000%
P. digitatum [5]
  decay control: ~100%

## [Na+].[O-]Cl [HOCl 200 ppm alone, sodium hypochlorite]
P. digitatum [2]; immersion, oranges, mean of four samples of 25
  Mean Decay (%): 88.000%
[6]; 100 psi wash, navel oranges (Table 10)
  Mean Decay (%): 99.3% (a)
[6]; 100 psi wash, navel oranges, relative to inoculated control
  Decay Control (%): 0.0%
[6]; pressure washer (100 psi), navel oranges, mean of four replicates
  % Decay, Mean %: 99.3%
[6]; [16]
  # Decay: 105 and 104 and 95 and 98
  # Healthy: 0 and 1 (3×)
  % Decay: 100.0% and 99.0% (3×)

## OCl [HOCl pH 7.5, HOCl]
P. digitatum [1]; [13]
  Mean Decay (%): 99.000%
P. digitatum [1]; second set of data, dipping, listed as HOCl pH 7.5 alone
  Mean Decay (%): 99.000%

## OCl [HOCl pH 8.4, HOCl]
P. digitatum [1]; [13]
  Mean Decay (%): 99.000%
P. digitatum [1]; second set of data, dipping, listed as HOCl pH 8.4 alone
  Mean Decay (%): 99.000%

## OCl [HOCl pH 11.4, HOCl]
P. digitatum [1]; [13]
  Mean Decay (%): 95.000%
P. digitatum [1]; [14]
  Mean Decay (%): 95.000%

## [Na+].[O-]Cl [High Cl, sodium hypochlorite]
[7]; [17]
  % Fruit Decay (Average): 97.5%
  Total Decay: 197
  No decay: 5
[7]; [18]
  % Fruit Decay (Average): 98%
  Total Decay: 196
  No decay: 4

## [Na+].[O-]Cl [Low Cl, sodium hypochlorite]
[7]; [17]
  % Fruit Decay (Average): 98.5%
  Total Decay: 201
  No decay: 3
[7]; [18]
  % Fruit Decay (Average): 99.5%
  Total Decay: 199
  No decay: 1

## CC/C=C\CC1C(=O)CCC1CC(=O)OC (stereo not shown) [Methyl jasmenate, high rate, Methyl jasmenate]
P. digitatum [1]; [13]
  Mean Decay (%): 100.000%
P. digitatum [1]; second set of data, dipping
  Mean Decay (%): 100.000%

## [Na+].[O-]Cl [NaOCl 200 ppm pH 7.5 alone at 80° F., sodium hypochlorite]
Green Mold [8]
  Mean Decay (%): 17.000%
[9]; [13]
  Mean Decay (%): 18.112%
[9]; [19]
  Mean Decay (%): 18.112%

## [O][Cl+][O-] [Oxine 3-6 ppm alone at 80° F., chlorine dioxide]
Green Mold [8]
  Mean Decay (%): 14.000%
[9]; first set of data, four groups of 25, listed as Oxine 3-8 ppm, 80° F.
  Mean Decay (%): 21.710%
[9]; second set of data, four groups of 25, listed as Oxine 5-8 ppm 80° F.
  Mean Decay (%): 21.710%

## [O][Cl+][O-] [Oxine 75 ppm alone at 80° F., chlorine dioxide]
Green Mold [8]
  Mean Decay (%): 14.000%
[9]; first set of data, four groups of 25, 80° F.
  Mean Decay (%): 22.338%
[9]; second set of data, four groups of 25, listed as Oxine 75 ppm 80° F.
  Mean Decay (%): 22.358%

## [O][Cl+][O-] [Oxine 200 ppm alone at 80° F., chlorine dioxide]
Green Mold [8]
  Mean Decay (%): 18.000%
[9]; first set of data, four groups of 25, listed as Ozine 200 ppm, alone 80° F.
  Mean Decay (%): 10.818%
[9]; second set of data, four groups of 25, listed as Oxine 200 ppm 80° F.
  Mean Decay (%): 10.878%

## O=C([O-])[O-].[Na+].[Na+] [Soda ash 3% w/v at 80° F., sodium carbonate]
Green Mold [3]; no pressure washing, dip
  Decay (%) Oranges: 13.0%
Green Mold [8]
  Mean Decay (%): 11.000%
Green Mold [4]; no pressure washing, dip
  Decay (%) Lemons: 6.8%
[9]; [13]
  Mean Decay (%): 10.638%
[9]; [19]
  Mean Decay (%): 10.856%

## O=C([O-])O.[Na+] [sodium bicarbonate]
P. digitatum isolate M6R [10]; HPSW at 2150 kPa (320 psi)
  mean decay: 17%
P. digitatum isolate M6R [10]; tank treatment 35 seconds
  mean incidence of decay: 22%
P. digitatum isolate M6R [11]; HPSW at 2150 kPa (320 psi)
  mean decay: 20%
P. digitatum isolate M6R [11]; tank treatment 35 seconds
  mean incidence of decay: 19%

## O=C([O-])[O-].[Na+].[Na+] [sodium carbonate]
P. digitatum [12]
  reduction of incidence of infections from wounds: more than 90%

From patent US20020110602A1, “Method and apparatus for washing produce” (priority 2000, published 2002)
